Some test systems named below: HOP-92 NSCLC; HL-60(TB) leukemia; ACHN renal; OVCAR-3 ovarian; SR leukemia; UACC-257 melanoma; CCRF-CEM leukemia; NCI-H460 lung; UO-31 renal; LOX IMVI melanoma; COLO 205 colon.
What all share (assay): growth of human tumour cells (NCI), 48 h

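Interpolation was linear, between the two tested concentrations surrounding the appropriate level; five concentrations were tested over 48 hours in 96-well plates. TGI is the concentration that stops growth completely.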

Turning to `Cn1c2c(c3c(=O)[nH]ncc31)CCc1ccccc1-2`, the TGI is above 100 µM in the assay with HOP-92 NSCLC; 60.6 µM in the assay on HL-60(TB) leukemia; 72.4 µM with ACHN renal; 72.2 µM in the assay on OVCAR-3 ovarian; 55.2 µM in the assay with SR leukemia; 40.6 µM in the assay with UACC-257 melanoma. Moreover, the TGI in the assay with CCRF-CEM leukemia was determined as 60.7 µM; in the assay on NCI-H460 lung it was 33.6 µM; with UO-31 renal, 59.1 µM; in the assay with LOX IMVI melanoma, 35 µM; in the assay with COLO 205 colon, 81.1 µM.

For the compound `COC(=N)C(C)C`, the TGI in the assay on HOP-92 NSCLC, with HL-60(TB) leukemia, with ACHN renal, with OVCAR-3 ovarian, in the assay on SR leukemia and with UACC-257 melanoma was above 100 µM in each case. Besides, the TGI with CCRF-CEM leukemia, with NCI-H460 lung, in the assay on UO-31 renal, in the assay on LOX IMVI melanoma and in the assay with COLO 205 colon was above 100 µM each time.

As to `O=P(O)(O)OP(=O)(O)O`, the TGI with HOP-92 NSCLC, with HL-60(TB) leukemia, in the assay with ACHN renal, with OVCAR-3 ovarian, in the assay with SR leukemia and in the assay with UACC-257 melanoma was above 100 µM each time. The TGI in the assay with CCRF-CEM leukemia, in the assay with NCI-H460 lung, in the assay on UO-31 renal, in the assay on LOX IMVI melanoma and with COLO 205 colon was above 100 µM in each case.

Source of the values: PubChem BioAssay (NCI).
